This note sets out measurements from ChEMBL document CHEMBL2010656, “Design, synthesis and evaluation of isaindigotone derivatives as dual inhibitors for acetylcholinesterase and amyloid beta aggregation” (Bioorg Med Chem, 2012).

Active and inactive are the calls of the source. No cut-off for these calls is given here. Where only a bound is given, the exact number is not on record here.

For assay [1], the target named is Cholinesterase (Equus caballus, UniProt P81908).
Description: Inhibition of equine serum butyrylcholinesterase using butyrylthiocholine chloride as substrate preincubated for 15 mins before substrate addition by Ellman's method
The target in assay [2] is Acetylcholinesterase (Electrophorus electricus, UniProt O42275).
Description: Inhibition of electric eel acetylcholinesterase using acetylcholine chloride as substrate preincubated for 15 mins before substrate addition by Ellman's method
Assay [3] can be described thus: Inhibition of amyloid beta (1 to 40) self-mediated aggregation at 10 uM after 72 hrs by thioflavin T based fluorometric assay relative to control.
The nature of assay [4]: Inhibition of amyloid beta (1 to 40) self-mediated aggregation assessed as change in alpha-helix structure formation at 20 uM after 3 days by CD spectropolarimetric analysis.
Assay [5] is described as follows: Inhibition of amyloid beta (1 to 40) self-mediated aggregation assessed as reduction in beta-sheet structure formation at 20 uM after 3 days by CD spectropolarimetric analysis.
In assay [6] the target is Acetylcholinesterase (Electrophorus electricus) (UniProt O42275). The experiment in a line: Mixed type inhibition of electric eel acetylcholinesterase preincubated for 15 mins by Lineweaver-Burk plot analysis.
A short description of assay [7]: Inhibition of amyloid beta (1 to 40) self-mediated aggregation assessed as inhibition of extended fibrils formation at 10 uM after 4 days by transmission electron microscopic analysis.

Cholinesterase, sequence (P81908 whole entry): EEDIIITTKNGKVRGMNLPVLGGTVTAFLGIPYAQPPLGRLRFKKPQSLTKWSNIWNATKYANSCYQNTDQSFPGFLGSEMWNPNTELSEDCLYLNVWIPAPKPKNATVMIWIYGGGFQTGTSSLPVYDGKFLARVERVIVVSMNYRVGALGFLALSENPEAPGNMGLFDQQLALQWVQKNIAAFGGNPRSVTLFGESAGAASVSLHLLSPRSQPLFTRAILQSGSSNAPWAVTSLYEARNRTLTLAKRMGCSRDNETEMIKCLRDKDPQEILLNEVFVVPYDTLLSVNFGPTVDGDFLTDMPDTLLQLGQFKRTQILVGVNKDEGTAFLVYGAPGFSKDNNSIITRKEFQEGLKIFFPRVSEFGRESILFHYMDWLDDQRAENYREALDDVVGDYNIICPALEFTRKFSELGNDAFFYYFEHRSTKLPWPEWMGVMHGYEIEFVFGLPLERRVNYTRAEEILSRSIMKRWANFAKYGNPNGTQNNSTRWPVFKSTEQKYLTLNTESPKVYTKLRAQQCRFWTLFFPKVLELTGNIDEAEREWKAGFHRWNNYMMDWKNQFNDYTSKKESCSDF
Acetylcholinesterase, sequence (O42275 whole entry): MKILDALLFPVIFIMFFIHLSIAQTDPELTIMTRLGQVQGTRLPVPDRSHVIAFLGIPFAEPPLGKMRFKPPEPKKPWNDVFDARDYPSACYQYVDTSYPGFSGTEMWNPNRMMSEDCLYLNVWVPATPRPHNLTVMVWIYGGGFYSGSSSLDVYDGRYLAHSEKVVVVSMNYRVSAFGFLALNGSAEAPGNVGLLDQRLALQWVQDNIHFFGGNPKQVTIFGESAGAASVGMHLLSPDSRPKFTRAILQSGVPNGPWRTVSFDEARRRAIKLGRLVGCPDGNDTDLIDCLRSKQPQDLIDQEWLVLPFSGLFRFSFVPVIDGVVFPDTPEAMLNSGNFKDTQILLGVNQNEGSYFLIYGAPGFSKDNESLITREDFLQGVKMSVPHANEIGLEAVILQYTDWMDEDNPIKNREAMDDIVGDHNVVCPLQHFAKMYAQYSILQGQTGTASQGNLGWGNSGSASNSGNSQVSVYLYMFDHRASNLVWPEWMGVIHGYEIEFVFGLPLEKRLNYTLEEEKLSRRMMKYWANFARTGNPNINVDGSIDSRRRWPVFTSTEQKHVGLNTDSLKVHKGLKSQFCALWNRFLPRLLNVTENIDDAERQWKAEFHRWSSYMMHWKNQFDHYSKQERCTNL
Acetylcholinesterase (Electrophorus electricus), sequence (O42275 24-633 limits assumed): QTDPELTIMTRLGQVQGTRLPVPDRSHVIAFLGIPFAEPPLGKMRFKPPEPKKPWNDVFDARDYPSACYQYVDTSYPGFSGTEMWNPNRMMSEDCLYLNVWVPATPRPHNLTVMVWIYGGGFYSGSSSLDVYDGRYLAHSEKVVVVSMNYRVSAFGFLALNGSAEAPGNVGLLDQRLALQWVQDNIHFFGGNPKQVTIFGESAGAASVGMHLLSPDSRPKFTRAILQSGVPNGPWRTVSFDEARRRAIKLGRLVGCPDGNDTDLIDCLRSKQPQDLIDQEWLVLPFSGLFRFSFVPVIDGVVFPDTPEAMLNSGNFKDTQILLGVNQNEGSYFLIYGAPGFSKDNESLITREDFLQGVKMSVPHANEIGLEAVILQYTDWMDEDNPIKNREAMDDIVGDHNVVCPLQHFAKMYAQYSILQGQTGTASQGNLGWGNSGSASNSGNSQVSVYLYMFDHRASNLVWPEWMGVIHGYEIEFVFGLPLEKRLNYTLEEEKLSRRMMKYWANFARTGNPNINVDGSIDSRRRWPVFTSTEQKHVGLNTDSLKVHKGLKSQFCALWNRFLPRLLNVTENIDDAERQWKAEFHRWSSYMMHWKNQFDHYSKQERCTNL

`CN(C)CCNC(=O)c1ccc(/C=C2\CCCn3c2nc2cc(Cl)ccc2c3=O)cc1`: the IC50 (in general, the point on the concentration scale where inhibition reaches its midpoint) in assay [1] was greater than 40000 nM; in assay [2] it was 360 nM. Further, the inhibition (in general, the relative decrease from the control value, in per cent) in assay [3] was determined as 54.5%.
`O=C(CCN1CCCC1)Nc1ccc(/C=C2\CCn3c2nc2cc(Cl)ccc2c3=O)cc1`: the IC50 is 3820 nM in assay [1] and 41 nM in assay [2]. Also, the inhibition entry in assay [4] is “inactive”. For the same molecule, the inhibition entry in assay [5], in assay [6] and in assay [7] was “Active” each time. This molecule also displayed an inhibition in assay [3] of 62.3%.
Consider `O=C(NCCN1CCCC1)c1ccc(/C=C2\CCCn3c2nc2cc(Cl)ccc2c3=O)cc1`, for which the half-inhibitory concentration (IC50) came to 6750 nM in assay [1] and 1510 nM in assay [2]. This molecule also gave an inhibition in assay [3] of 53.6%.
On the same counts, the results for `CCN(CC)CCC(=O)Nc1ccc(/C=C2\CCn3c2nc2cc(Cl)ccc2c3=O)cc1` are 6440 nM, 60 nM and 39%.
Take `O=C(CC[n+]1ccccc1)Nc1ccc(/C=C2\CCn3c2nc2cc(Cl)ccc2c3=O)cc1`: the IC50 turned out to be 1700 nM in assay [1] and 49 nM in assay [2]. The inhibition in assay [3] turned out to be 49%.
On the same counts, the results for `O=C(CC[n+]1ccccc1)Nc1ccc(/C=C2\CCCn3c2nc2cc(Cl)ccc2c3=O)cc1` are 3380 nM, 820 nM and 33%.
`COc1cc(/C=C/C(=O)CC(=O)/C=C/c2ccc(O)c(OC)c2)ccc1O` came in with an inhibition in assay [3] of 48.8%.
Regarding `CN(C)CCCNC(=O)c1ccc(/C=C2\CCCn3c2nc2cc(Cl)ccc2c3=O)cc1`, the half-inhibitory concentration (IC50) in assay [1] stood at 6640 nM; in assay [2], 2050 nM. Besides, in assay [3], the inhibition turned out to be 49.8%.
The matching figures for `CN(C)CCNC(=O)c1ccc(/C=C2\CCn3c2nc2cc(Cl)ccc2c3=O)cc1`: greater than 20000 nM, 160 nM and 36.8%.
The matching figures for `CCN(CC)CCC(=O)Nc1ccc(/C=C2\CCCn3c2nc2cc(Cl)ccc2c3=O)cc1`: 2340 nM, greater than 1000 nM and 54.8%.
On the same counts, the results for `O=C(NCCCN1CCCC1)c1ccc(/C=C2\CCCn3c2nc2cc(Cl)ccc2c3=O)cc1` are 500 nM, 1210 nM and 53.3%.
As for `O=C(CCN1CCCCC1)Nc1ccc(/C=C2\CCCn3c2nc2cc(Cl)ccc2c3=O)cc1`, the half-inhibitory concentration (IC50) in assay [1] is 5990 nM; in assay [2], 31 nM. This molecule also displayed an inhibition in assay [3] of 52.9%.
The matching figures for `O=C(NCCN1CCCC1)c1ccc(/C=C2\CCn3c2nc2cc(Cl)ccc2c3=O)cc1`: 11100 nM, 45 nM and 57.4%.
The matching figures for `CN(C)CCCNC(=O)c1ccc(/C=C2\CCn3c2nc2cc(Cl)ccc2c3=O)cc1`: 5180 nM, 1420 nM and 56.5%.
The matching figures for `O=C(CCN1CCCC1)Nc1ccc(/C=C2\CCCn3c2nc2cc(Cl)ccc2c3=O)cc1`: 6450 nM, greater than 1000 nM and 53.5%.
`O=C(NCCCN1CCCC1)c1ccc(/C=C2\CCn3c2nc2cc(Cl)ccc2c3=O)cc1`: the values for the concentration for half-maximal inhibition (IC50) in assay [1] and in assay [2] were 610 nM and 1440 nM, respectively. This molecule had an inhibition in assay [3] of 36.2%.
On the same counts, the results for `O=C(CCN1CCCCC1)Nc1ccc(/C=C2\CCn3c2nc2cc(Cl)ccc2c3=O)cc1` are 2880 nM, 23 nM and 49.8%.
